pIC50: −log10 of the molar value.
Biological target: T1, CDK9/Cyclin T1 (Homo sapiens, UniProt P50750)
T1 construct: made in house; host or cells: HEK293 cells, recombinant adenovirus
Assay: Kinase assay using CDK9/Cyclin T1
Format: biochemical
Details: read-out: CDK9 (activity range)
Description: Cloning of CDK9 and Cyclin T1:
Both cDNA fragments were cloned by PCR into pDONR201 vectors using the gateway recombination system (Invitrogen) according to the manufacturer's recommendations. The fragments were subcloned into a gateway-adapted shuttle vector (pPM7) for production of recombinant adenovirus. All plasmids were verified by restriction digests and sequencing analysis.
Expression and Purification of CDK9/Cyclin T1 Proteins:
Expression and purification was in principle performed as described by Cotten et al. (M. Cotten et al., Nucleic acids research, 2003, 31(28), 128).
Kinase Assay Using CDK9/Cyclin T1:
Kinase assays were performed in principle as described by Cotten et al. (M. Cotten et al., Nucleic acids research, 2003, 31(28), 128).

T1 sequence (P50750 whole entry): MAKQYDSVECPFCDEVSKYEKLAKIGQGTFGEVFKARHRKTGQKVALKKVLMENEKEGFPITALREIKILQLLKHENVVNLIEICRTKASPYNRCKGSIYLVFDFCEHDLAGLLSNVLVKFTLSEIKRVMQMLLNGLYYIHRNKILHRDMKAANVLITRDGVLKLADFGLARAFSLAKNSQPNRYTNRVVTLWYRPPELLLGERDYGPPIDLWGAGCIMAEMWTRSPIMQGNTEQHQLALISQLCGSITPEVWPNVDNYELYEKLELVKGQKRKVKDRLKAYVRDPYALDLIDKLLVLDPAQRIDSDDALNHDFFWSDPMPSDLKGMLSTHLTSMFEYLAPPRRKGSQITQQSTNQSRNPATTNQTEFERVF
T1 sequence (O60563 whole entry partner): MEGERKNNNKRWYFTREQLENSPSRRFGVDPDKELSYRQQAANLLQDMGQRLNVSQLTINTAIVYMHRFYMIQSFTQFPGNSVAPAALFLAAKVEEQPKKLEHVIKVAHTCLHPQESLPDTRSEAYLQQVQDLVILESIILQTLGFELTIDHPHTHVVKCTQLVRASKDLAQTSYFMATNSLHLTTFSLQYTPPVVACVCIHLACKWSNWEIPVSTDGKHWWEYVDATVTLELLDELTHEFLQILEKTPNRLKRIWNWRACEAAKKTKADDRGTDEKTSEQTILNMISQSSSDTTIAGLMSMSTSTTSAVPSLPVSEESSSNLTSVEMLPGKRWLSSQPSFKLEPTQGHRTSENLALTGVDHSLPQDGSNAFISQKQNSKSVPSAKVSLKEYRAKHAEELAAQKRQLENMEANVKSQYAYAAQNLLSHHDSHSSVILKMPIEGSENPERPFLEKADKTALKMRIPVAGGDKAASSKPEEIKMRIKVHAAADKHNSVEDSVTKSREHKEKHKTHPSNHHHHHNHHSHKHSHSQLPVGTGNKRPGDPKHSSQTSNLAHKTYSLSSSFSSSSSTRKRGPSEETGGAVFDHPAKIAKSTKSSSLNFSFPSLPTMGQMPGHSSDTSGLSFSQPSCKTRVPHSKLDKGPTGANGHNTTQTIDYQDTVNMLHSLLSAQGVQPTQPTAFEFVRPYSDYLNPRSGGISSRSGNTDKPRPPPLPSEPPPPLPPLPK

pIC50	SMILES
5.00 to 6.00	COCc1ccccc1-c1cc(Nc2ccc(C(=O)NC3CCCCC3N)cc2)ncn1 (stereo not shown) [(210)]
3.60 to 5.00	O=C(Nc1ccc(Nc2cc(-c3ccc(OCc4ccccc4)cc3)ncn2)cc1)[C@@H]1CCCCN1 [(173)]
5.00 to 6.00	N#Cc1cccc(-c2cc(Nc3ccc(C(=O)NC4CCCCC4N)cc3)ncn2)c1 (stereo not shown) [(209)]
3.60 to 5.00	CC(C)(C)C(=O)Nc1ccc(Nc2cc(-c3ccccc3-c3ccccc3)ncn2)cc1 [(132)]
5.00 to 6.00	O=C(NC1CCCC1)c1ccc(-c2cc(Nc3ccc(NC(=O)[C@@H]4CCCCN4)cc3)ncn2)cc1 [(180)]
5.00 to 6.00	COCc1ccccc1-c1cc(Nc2ccc(C)c(NS(C)(=O)=O)c2)ncn1 [(197)]
3.60 to 5.00	CC(C)(C)C(=O)Nc1ccc(Nc2cc(-c3cccc(C(=O)O)c3)ncn2)cc1 [(75)]
5.00 to 6.00	CC(=O)Nc1ccc(-c2cc(Nc3ccc(NC(=O)[C@@H]4CCCCN4)cc3)ncn2)cc1 [(177)]
3.60 to 5.00	COc1ccc(-c2ncnc(Nc3ccc(NC(=O)c4ccc(N)cc4)cc3)c2C)cc1 [(200)]
5.00 to 6.00	Cc1ccc(Nc2cc(-c3ccc(CO)cc3)ncn2)cc1NS(C)(=O)=O [(175)]
5.00 to 6.00	Cc1ccc(Nc2cc(-c3ccccc3CO)ncn2)cc1NS(C)(=O)=O [(166)]
5.00 to 6.00	COC(=O)c1cccc(-c2cc(Nc3ccc(C(=O)N[C@@H]4CCCC[C@H]4N)cc3)ncn2)c1 (racemic) [(201)]
3.60 to 5.00	NC1CCCCC1NC(=O)c1ccc(Nc2cc(-c3cnc4ccccc4c3)ncn2)cc1 (stereo not shown) [(212)]
5.00 to 6.00	CN(C)c1cccc(-c2cc(Nc3ccc(NC(=O)[C@@H]4CCCCN4)cc3)ncn2)c1 [(169)]
3.60 to 5.00	NC1CCCCC1NC(=O)c1ccc(Nc2cc(-c3ccc(OCc4ccccc4)cc3)ncn2)cc1 (stereo not shown) [(208)]
3.60 to 5.00	COc1ccccc1-c1ncnc(Nc2ccc(NC(=O)c3ccc(N)cc3)cc2)c1C [(149)]
5.00 to 6.00	O=C(Nc1ccc(Nc2cc(-c3cccc(CO)c3)ncn2)cc1)[C@@H]1CCCCN1 [(193)]

pIC50	SMILES
3.60 to 5.00	COc1ncc(-c2cc(Nc3ccc(C(=O)N[C@@H]4CCCC[C@H]4N)cc3)ncn2)cn1 (racemic) [(213)]
5.00 to 6.00	COCc1cccc(-c2cc(Nc3ccc(NC(=O)[C@@H]4CCCCN4)cc3)ncn2)c1 [(203)]
5.00 to 6.00	COc1ccc(-c2cc(Nc3ccc(NC(=O)[C@@H]4CCCCN4)cc3)ncn2)cn1 [(172)]
5.00 to 6.00	O=C(Nc1ccc(Nc2cc(-c3ccccc3CO)ncn2)cc1)[C@@H]1CCCCN1 [(170)]
5.00 to 6.00	N[C@@H]1CCCC[C@H]1NC(=O)c1ccc(Nc2cc(-c3cccc(O)c3)ncn2)cc1 (racemic) [(194)]
5.00 to 6.00	CC(=O)Nc1cccc(-c2cc(Nc3ccc(C(=O)NC4CCCCC4N)cc3)ncn2)c1 (stereo not shown) [(207)]
3.60 to 5.00	COc1ccccc1-c1cc(Nc2ccc(NC(=O)c3cc4ccccc4oc3=O)cc2)ncn1 [(129)]
3.60 to 5.00	CCCS(=O)(=O)Nc1ccc(Nc2ncnc(-c3ccccc3OC)c2C)cc1 [(160)]
3.60 to 5.00	CC(=O)c1cccc(-c2cc(Nc3ccc(NC(=O)[C@@H]4CCCCN4)cc3)ncn2)c1 [(179)]
3.60 to 5.00	COc1ccc(-c2cc(Nc3ccc(N)cc3)nc(C)n2)cc1 [(205)]
5.00 to 6.00	Nc1cccc(-c2cc(Nc3ccc(C(=O)NC4CCCCC4N)cc3)ncn2)c1 (stereo not shown) [(206)]
5.00 to 6.00	CC(=O)c1ccc(-c2cc(Nc3ccc(NC(=O)[C@@H]4CCCCN4)cc3)ncn2)s1 [(191)]
5.00 to 6.00	COc1ccc(-c2cc(Nc3ccc(NC(=O)[C@@H]4CCCCN4)cc3)ncn2)cc1 [(167)]
3.60 to 5.00	COc1ccccc1-c1cc(Nc2ccc(N)cc2)nc(C)n1 [(204)]
6.00 to 9.00	CS(=O)(=O)Nc1cccc(-c2cc(Nc3ccc(NC(=O)[C@@H]4CCCCN4)cc3)ncn2)c1 [(178)]
5.00 to 6.00	CN(C)Cc1cccc(-c2cc(Nc3ccc(NC(=O)[C@@H]4CCCCN4)cc3)ncn2)c1 [(211)]
5.00 to 6.00	COc1ccccc1-c1cc(Nc2ccc(NC(=O)c3n[nH]c4ccccc34)cc2)ncn1 [(141)]

From patent publication US8084457B2, “Pharmaceutically active 4,6-disubstituted aminopyrimidine derivatives as modulators of protein kinases” (Lead Discovery Center GmbH, priority 2003, dated 2011)
